# Results reported in patent publication US10352938B2, “Macrocyclic HOPO chelators” (LUMIPHORE, INC., priority 2009, dated 2019).
# Like-named read-outs stand apart in the source and are kept apart here.
# Experiments:
# [1] = Calculation of Eu luminescence parameters (radiative lifetime, rate constants, efficiencies); format: physicochemical; details: listed as [Eu(H(22)-1,2-HOPO)]
# Method: In this equation, the ηISC ηET term is termed the sensitization efficiency, ηsens (ηsens=ηISC ηET). All the luminescence parameters τR (the pure radiative luminescence lifetime), kR and knR (the radiative and non-radiative constant rate) can be deduced. These parameters were calculated for five of the octadentate complexes and the model complex that present only one species in solution at pH=7.4 and are reported in Table 6.
# [2] = cited from earlier work; for τ (D2O): first component where two are printed; for τ (H2O): first (longer) component; for q / q, second species: number of inner sphere water molecules; for q: first species; for τ (H2O), second component: second (shorter) component of biexponential decay
# [3] = cited from earlier work; for λ: absorption maximum; for ε: extinction coefficient
# [4] = Luminescence quantum yield, emission and brightness in aqueous 0.1 M TRIS buffer; format: physicochemical; details: for øTot: 0.1M TRIS buffer pH = 7.4; for Brightness: at maximum absorption, product of quantum yield and molar absorption coefficient, 0.1 M TRIS pH = 7.4; for overall quantum yield (in words): related to inner-sphere coordinated water
# Method: Quantum Yield. Quantum yield will be measured using established methods. Fluorescence quantum yield Q are measured in diluted solution with an optical density lower than 0.1 using the following equation Qx/Qr=[Ar(λr)/Ax(λx)][nx^2/nr^2][Dx/Dr] were A is the absorbance at the excitation wavelength (λ), n the refractive index and D the integrated luminescence intensity. Subscripts “r” and “x” stand for reference and sample, respectively. References will be a quinine bisulfate in 1N sulfuric acid in aqueous solution (Qt=0.546)^1 and Ru(bpy)3 2C1 complexes in water solution (Qr=0.028)^2 for all complexes. A plot of integrated emission intensity (i.e. Dr) versus absorbance (i.e. Ar(λr)) yields a linear plot with a slope which can be equated to the reference quantum yield Qr. By analogy, for the unknown sample, a plot of integrated emission intensity (i.e. Dx) versus absorbance (i.e. Ax(λx)) yields a linear plot and Qx can then be evaluated. A minimum of at least two independent measurements will be averaged to derive a reliable value.
# [5] = UV/visible absorption spectroscopy of Eu(III) complexes in TRIS buffer; format: physicochemical; details: TRIS buffer pH = 7.4
# From the text: Extinction Coefficient. A series of solutions of varied concentrations will be prepared from the solids based on mass and purity. The absorbance of each of these solutions at both 340 nm and at the appropriate acceptor wavelength will be measured and plotted according to Beer's Law (A=εcL where A is absorbance, ε is the extinction coefficient in M^−1 cm^−1, c is concentration, and L is path length in cm) with the fitted linear regression slope equal to […] on a plot of A as a function of C.
# Each of the spectra have absorption maxima around 335-340 nm (FIG. 2). Those bands are composed of two electronic transitions; at higher energy, a purely π-π* transition and, at slightly lower energy (around ca. 320 nm), a π-π* transition with some n-π* character, as evidenced previously from TD-DFT calculations. […] This interaction gives maxima blue-shifting from 341 nm for [Eu(H(2,2)-1,2-HOPO)]^0 to 334 nm for [Eu(H(17O5,2)-1,2-HOPO)]^0 (as low as 332 nm for)[Eu(5LIN^Me-1,2HOPO)2]^0).
# [6] = Triplet excited state energy from phosphorescence of Gd complexes at 77K; format: physicochemical; details: solid matrix (methanol/ethanol 1/4), using the Gd complexes
# Method: Estimation of the energies of the ligand based triplet excited state were determined using the Gd(III) complexes. Gadolinium was chosen because it is a 4f^7 lanthanide cation having a similar 4f electronic configuration and size as the europium cation (4f^6), but lacking an accessible metal based low energy electronic excited state. At room temperature, only a broad weak emission centered between 380-400 nm can be seen for the Gd(III) complexes. […] At 77K, in solid matrix, an emission band at approx. 500 nm can be seen (FIG. 8). This emission, red-shifted compared to the singlet excited state, can be assigned to phosphorescence from the triplet excited state, lower in energy than the singlet excited state observed at room temperature. Selective time gated phosphorescence spectra (delay 0.1 ms) of the gadolinium complexes at 77K are depicted in FIG. 8.
# [7] = quantum yield; cited from earlier work
# [8] = Luminescence lifetimes (TRIS buffer, deuterated water, 77K) and inner sphere water number q; details: for τ^D / τ^D, second component: deuterated solution; for τ^D / τ (77K): first component; for q / q, second species: inner sphere water molecules; for q: improved Horrock's equations, first species; for τ (77K) / τ (77K), second component: solid matrix at 77K (methanol/ethanol 1/4)
# Method: Fluorescent decay signals can be acquired using an IBH DataStation Hub photon counting module and data analysis performed using the commercially available DAS 6 decay analysis software package from HORIBA Jobin Yvon IBH. Goodness of fit will be assessed by minimizing the reduced chi squared function, χ2, and a visual inspection of the weighted residuals. Each trace will use at least 10,000 points and the reported lifetime values result from at least three independent measurements.
# In addition to the steady state emission spectra, the luminescence quantum yields and luminescence lifetimes of the Eu(III) complexes were also measured in aqueous solution with 0.1 M TRIS buffer pH=7.4 and in deuterated solution to estimate the number of inner sphere water molecule (i.e. q) using the improved Horrock's equations.
# Luminescence lifetimes were also determined at 77K, in a solid matrix (Table 5), which have allowed us to determine whether back energy transfer between the donor triplet excited state and the acceptor manifold excited state of the lanthanide is present, or alternately whether quenching via low lying LMCT state occurs.
# [9] = competitive batch titration using DTPA in 0.1M TRIS pH = 7.4 and 0.1M KCl; cited from earlier work
# [10] = Stability titration (pEu) by competitive batch titration using DTPA; format: physicochemical; details: for pEu value as compared to DTPA: in words
# Method: Stability Titrations. The general procedure used to determine the pEu values of ligands was adapted from an already described study using Gd and are similar to that already reported for other complexes. Different volumes of a standardized DTPA stock solution were added to solutions of constant ligand, metal, and electrolyte concentrations. Concentrations of complexed ligand in each solution were determined by subtracting the remaining luminescence intensity after addition of DTPA to the initial luminescence intensity at identical pH and those concentrations were used as references for the analysis. Stability of compounds towards mM concentrations of EDTA and divalent cations will be assessed by incubation of the proposed molecules at nM concentration at room temperature in aqueous solutions of test ions. Time Resolved Fluorescent signal will be assessed at the outset of experiment and monitored over a minimum of 24 hours to determine signal change.
# [11] = listed as [Eu(H(2,2)-1,2HOPO)]^0
# [12] = listed as [Eu(H(2,2)-1,2-HOPO)]^0
# [13] = listed as [Eu(H(3,2)-1,2HOPO)]^0
# [14] = listed as [Eu(H(4,2)-1,2HOPO)]^0
structure (smiles),measurement,setting,value
O=C(NCCN(CCCCN(CCNC(=O)c1cccc(=O)n1O)CCNC(=O)c1cccc(=O)n1O)CCNC(=O)c1cccc(=O)n1O)c1cccc(=O)n1O [Eu(H2)],η^Eu,[1]; efficiency of metal centred luminescence,0.160
same,knr,[1]; non-radiative rate constant,1750 s⁻¹
same,τrad,"[1]; pure radiative luminescence lifetime, aqueous TRIS pH = 7.4",3000 μs
same,kr,[1]; radiative rate constant,333 s⁻¹
same,η^sens,[1]; sensitization efficiency,0.225
same,τ (D2O),[2],1222 μs
same,τ (H2O),[2],480 μs
same,q,[2],1.1
same,λ,[3],341 nm
same,ε,[3],"18,200 M^1 cm^−1"
same,øTot,[4]; [11],0.036
same,ϕTot,"[4]; aqueous TRIS pH = 7.4, complexes with only one species, listed as [Eu(H(22)-1,2-HOPO)]",0.036
same,Brightness,[4]; [12],655 M⁻¹ cm⁻¹
same,Brightness,[4]; [11],655 M⁻¹ cm⁻¹
same,overall quantum yield (in words),[4],low quantum yields
same,λ^maxabs,[5]; [12],341 nm
same,ε,[5]; [11],"18,200 M^−1 · cm^−1"
same,λ^maxabs,[5]; [11],341 nm
same,T0-0 (triplet excited state energy),[6]; [11],"21,980 cm^−1"
same,ϕEu,[7],0.036
same,τ,"[8]; aqueous TRIS pH = 7.4, listed as [Eu(H(22)-1,2-HOPO)]",480 μs
same,τ^D,[8]; [11],1222 μs
same,q,[8]; [11],1.1
same,τ (77K),[8]; [11],914 μs
same,pEu,[9],21.2
O=C(NCCN(CCCCN(CCNC(=O)c1cccc(=O)n1O)CCNC(=O)c1cccc(=O)n1O)CCNC(=O)c1cccc(=O)n1O)c1cccc(=O)n1O [Eu(H3)],τ (D2O),[2],811 μs
same,"τ (D2O), second component",[2],369 μs
same,τ (H2O),[2],552 μs
same,"τ (H2O), second component",[2],253 μs
same,q,[2],0.3
same,"q, second species",[2],1.0
same,λ,[3],339 nm
same,ε,[3],"17,700 M^1 cm^−1"
same,pEu value as compared to DTPA,[10],decreased
same,decrease in stability relative to Eu(H8-2) and Eu(H11-3),[10]; pEu difference,2.9 log unit
same,øTot,[4]; [13],0.037
same,Brightness,[4]; [13],655 M⁻¹ cm⁻¹
same,overall quantum yield (in words),[4],low quantum yields
same,ε,[5]; [13],"17,700 M^−1 · cm^−1"
same,λ^maxabs,[5]; [13],339 nm
same,T0-0 (triplet excited state energy),[6]; [13],"21,900 cm^−1"
same,ϕEu,[7],0.037
same,τ^D,[8]; [13],811; μs
same,"τ^D, second component",[8]; [13],369 μs
same,q,"[8]; listed as [Eu(H(3,2)-1,2-HOPO)]^0",0.3
same,q,[8]; [13],0.3;
same,"q, second species",[8]; [13],1.0
same,τ (77K),[8]; [13],1040; μs
same,"τ (77K), second component",[8]; [13],781 μs
same,pEu,[9],17.5
O=C(NCCN(CCCCN(CCNC(=O)c1cccc(=O)n1O)CCNC(=O)c1cccc(=O)n1O)CCNC(=O)c1cccc(=O)n1O)c1cccc(=O)n1O [Eu(H4)],τ (D2O),[2],803 μs
same,"τ (D2O), second component",[2],338 μs
same,τ (H2O),[2],649 μs
same,"τ (H2O), second component",[2],236 μs
same,q,[2],0
same,"q, second species",[2],1.1
same,λ,[3],337 nm
same,ε,[3],"17,900 M^1 cm^−1"
same,pEu value as compared to DTPA,[10],decreased
same,øTot,"[4]; listed as [Eu(H(4,2)-1,2-HOPO)]^0",0.031
same,øTot,[4]; [14],0.031
same,Brightness,[4]; [14],555 M⁻¹ cm⁻¹
same,overall quantum yield (in words),[4],low quantum yields
same,ε,[5]; [14],"17,900 M^−1 · cm^−1"
same,λ^maxabs,[5]; [14],337 nm
same,T0-0 (triplet excited state energy),[6]; [14],"22,390 cm^−1"
same,ϕEu,[7],0.031
same,τ^D,[8]; [14],803; μs
same,"τ^D, second component",[8]; [14],338 μs
same,q,[8]; [14],0;
same,"q, second species",[8]; [14],1.1
same,τ (77K),[8]; [14],902; μs
same,"τ (77K), second component",[8]; [14],645 μs
same,pEu,[9],18.4
